The target in experiment [1] is T1, human calcium receptor (Homo sapiens, UniProt P41180).
T1 construct: expressed in transfected cells; host or cells: HEK293
T1 sequence (P41180 20-1078): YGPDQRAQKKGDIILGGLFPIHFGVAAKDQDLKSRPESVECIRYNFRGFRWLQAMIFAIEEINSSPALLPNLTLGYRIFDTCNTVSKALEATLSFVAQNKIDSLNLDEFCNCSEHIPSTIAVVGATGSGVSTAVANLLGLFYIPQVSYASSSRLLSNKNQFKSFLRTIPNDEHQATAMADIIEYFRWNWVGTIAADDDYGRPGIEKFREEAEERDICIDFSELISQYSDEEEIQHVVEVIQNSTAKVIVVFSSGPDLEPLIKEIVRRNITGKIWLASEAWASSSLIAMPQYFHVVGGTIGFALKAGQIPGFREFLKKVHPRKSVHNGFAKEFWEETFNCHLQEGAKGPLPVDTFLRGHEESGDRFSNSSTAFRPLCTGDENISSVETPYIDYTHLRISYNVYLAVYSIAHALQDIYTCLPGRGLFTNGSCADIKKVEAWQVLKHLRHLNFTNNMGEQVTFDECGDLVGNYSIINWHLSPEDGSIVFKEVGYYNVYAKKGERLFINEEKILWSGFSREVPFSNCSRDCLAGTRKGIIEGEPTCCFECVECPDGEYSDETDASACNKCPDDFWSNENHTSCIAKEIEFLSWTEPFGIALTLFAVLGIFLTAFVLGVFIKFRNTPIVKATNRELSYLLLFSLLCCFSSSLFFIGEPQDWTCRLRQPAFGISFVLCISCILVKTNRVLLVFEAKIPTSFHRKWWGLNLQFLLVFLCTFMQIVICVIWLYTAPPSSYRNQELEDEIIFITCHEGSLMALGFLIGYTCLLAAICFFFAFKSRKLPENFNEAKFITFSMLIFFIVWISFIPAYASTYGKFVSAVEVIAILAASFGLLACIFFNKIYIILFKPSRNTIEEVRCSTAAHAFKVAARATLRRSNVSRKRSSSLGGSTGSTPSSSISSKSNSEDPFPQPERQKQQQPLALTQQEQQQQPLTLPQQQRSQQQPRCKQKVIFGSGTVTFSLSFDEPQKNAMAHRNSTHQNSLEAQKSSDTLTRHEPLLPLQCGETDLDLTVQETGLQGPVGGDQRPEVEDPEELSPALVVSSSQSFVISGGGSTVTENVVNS
Nature of the experiment: Activity on calcium receptors: fluo-3 fluorescence in HEK293 cells transfected with human calcium receptor gene. The class given is cell-based. As to conditions: HEK293 cells transfected with plasmid pHuPCaR4.0 (human calcium receptor gene), loaded with fluo-3; 1 mM CaCl2, 1 mM MgCl2. The essentials:
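HEK293 cells transfected with human calcium receptor plasmid, loaded 1 h at 37 °C with about 5 μM fluo-3/AM. Cells then rinsed into HEPES-buffered HBSS with 1 mM CaCl2 and 1 mM MgCl2. Fluorescence read at 485/540 nm after compound addition.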

In experiment [2] the test system is normal male SD rats. Nature of the experiment: Plasma Ca^2+ level of rats after single oral administration. It is filed as in vivo. The note with it: rat, mean of six animals; for Plasma Ca^2+ (mmol/l) 1 hr: 1 hr after single oral dose 30 μmol/kg; for Plasma Ca^2+ (mmol/l) 1 hr / Plasma Ca^2+ (mmol/l) 2 hr / Plasma Ca^2+ (mmol/l) 4 hr / Plasma Ca^2+ (mmol/l) 8 hr / Plasma Ca^2+ (mmol/l) 24 hr: vehicle 10% cyclodextrin (** 1% sodium-CMC); for Plasma Ca^2+ (mmol/l) 2 hr: 2 hr after single oral dose 30 μmol/kg; for Plasma Ca^2+ (mmol/l) 4 hr: 4 hr after single oral dose 30 μmol/kg; for Plasma Ca^2+ (mmol/l) 8 hr: 8 hr after single oral dose 30 μmol/kg; for Plasma Ca^2+ (mmol/l) 24 hr: 24 hr after single oral dose 30 μmol/kg; for Plasma Ca^2+ (mmol/l) 48 hr: 48 hr after single oral dose 30 μmol/kg, vehicle 10% cyclodextrin. The essentials: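 Normal male SD rats (n=6/group) received a single oral dose of 30 μmol/kg in 10% cyclodextrin or, for some compounds, 1% sodium-CMC; vehicle controls received 2.5 ml/kg. Tail blood was drawn pre-dose and at 30 min and 1, 2, 4, 8 and 24 h for plasma Ca^2+ and serum PTH. PTH was compared with vehicle by Steel's test.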

Data on 7 compounds can be found in patent US7816408B2, “Calcium receptor active compounds” (NPS Pharmaceuticals, Inc., priority 2002, dated 2010).

The term EC50 denotes the concentration at which the effect is half-maximal.

Each structure is given as a SMILES string.

Take `C[C@@H](NCCC(=O)N(Cc1ccc(Cl)cc1)Cc1ccc(OC(F)(F)F)cc1)c1cccc2ccccc12` [Compound K-2283, N1-(4-chlorobenzyl)-N1-[4-(trifluoromethoxy)benzyl)-3-{[(1R)-1-(1-naphthyl)ethyl]-amino}propanamide]: the EC50 in experiment [1] was found to be 93 nM. For the same compound, in experiment [2], the “Plasma Ca^2+ (mmol/l) 1 hr” value is 1.395 mmol/L, the “Plasma Ca^2+ (mmol/l) 2 hr” value was determined as 1.305 mmol/L, the “Plasma Ca^2+ (mmol/l) 4 hr” value was 1.210 mmol/L and the “Plasma Ca^2+ (mmol/l) 8 hr” value was 1.253 mmol/L.

With `C[C@@H](NCCCCCSc1c(F)c(F)c(C(F)(F)F)c(F)c1F)c1cccc2ccccc12` [Compound K-2284, N-[(1R)-1-(1-naphthyl)ethyl]-N-(5-{[2,3,5,6-tetrafluoro-4-(trifluoromethyl)phenyl]thio}pentyl) amine], in experiment [1], the EC50 was 360 nM. For the same compound, in experiment [2], the “Plasma Ca^2+ (mmol/l) 1 hr” value worked out at 1.377 mmol/L, the “Plasma Ca^2+ (mmol/l) 2 hr” value was 1.267 mmol/L, the “Plasma Ca^2+ (mmol/l) 4 hr” value came to 1.152 mmol/L and the “Plasma Ca^2+ (mmol/l) 8 hr” value was 1.102 mmol/L.

`C[C@@H](NCCCCCCSc1ccc(Cl)cc1)c1cccc2ccccc12` [Compound K-2286, N-{6-[(4-chlorophenyl)thio]hexyl}-N-[(1R)-1-(1-naphthyl)ethyl]amine]: in experiment [1], the EC50 is 620 nM. For the same compound, in experiment [2], the “Plasma Ca^2+ (mmol/l) 1 hr” value is 1.318 mmol/L, the “Plasma Ca^2+ (mmol/l) 2 hr” value was found to be 1.218 mmol/L, the “Plasma Ca^2+ (mmol/l) 4 hr” value worked out at 1.088 mmol/L and the “Plasma Ca^2+ (mmol/l) 8 hr” value amounted to 1.098 mmol/L. Besides, in experiment [2], the “Plasma Ca^2+ (mmol/l) 24 hr” value worked out at 1.390 mmol/L and the “Plasma Ca^2+ (mmol/l) 48 hr” value turned out to be 1.412 mmol/L.

In the case of `C[C@@H](NCCCCSc1ccc(OC(F)(F)F)cc1)c1cccc2ccccc12` [Compound K-2287, N-[(1R)-1-(1-naphthyl)ethyl]-N-(4-{[4-(trifluoromethoxy)phenyl)thio]butyl)amine], in experiment [1], the EC50 is 62 nM. In addition, in experiment [2], the “Plasma Ca^2+ (mmol/l) 1 hr” value stood at 1.180 mmol/L, the “Plasma Ca^2+ (mmol/l) 2 hr” value was determined as 1.042 mmol/L, the “Plasma Ca^2+ (mmol/l) 4 hr” value was determined as 0.955 mmol/L and the “Plasma Ca^2+ (mmol/l) 8 hr” value was determined as 0.950 mmol/L. Further, in experiment [2], the “Plasma Ca^2+ (mmol/l) 24 hr” value was found to be 1.200 mmol/L and the “Plasma Ca^2+ (mmol/l) 48 hr” value was 1.392 mmol/L.

As to `C[C@@H](NCCCCCSc1ccc(OC(F)(F)F)cc1)c1cccc2ccccc12` [Compound K-2288, N-[(1R)-1-(1-naphthyl)ethyl]-N-(5-{[4-(trifluoromethoxy)phenyl)thio]pentyl)amine], the half-maximal effective concentration (EC50) in experiment [1] amounted to 140 nM. In experiment [2], the “Plasma Ca^2+ (mmol/l) 1 hr” value stood at 1.190 mmol/L, the “Plasma Ca^2+ (mmol/l) 2 hr” value stood at 1.057 mmol/L, the “Plasma Ca^2+ (mmol/l) 4 hr” value amounted to 0.955 mmol/L and the “Plasma Ca^2+ (mmol/l) 8 hr” value is 0.905 mmol/L. Besides, in experiment [2], the “Plasma Ca^2+ (mmol/l) 24 hr” value is 1.162 mmol/L and the “Plasma Ca^2+ (mmol/l) 48 hr” value was 1.387 mmol/L.

As for `COc1ccc(CN(Cc2ccc(Cl)cc2)C(=O)CCN[C@H](C)c2cccc3ccccc23)cc1` [Compound K-2289, N1-(4-chlorobenzyl)-N1-(4-methoxybenzyl)-3-{[(1R)-1-(1-naphthyl)ethyl]amino}propanamide], the EC50 in experiment [1] was found to be 74 nM. For the same compound, in experiment [2], the “Plasma Ca^2+ (mmol/l) 1 hr” value came out at 1.270 mmol/L, the “Plasma Ca^2+ (mmol/l) 2 hr” value was found to be 1.173 mmol/L, the “Plasma Ca^2+ (mmol/l) 4 hr” value was determined as 1.003 mmol/L and the “Plasma Ca^2+ (mmol/l) 8 hr” value is 1.093 mmol/L.

On to `COc1ccc(CN(Cc2ccc(C(F)(F)F)cc2)C(=O)CCN[C@H](C)c2cccc3ccccc23)cc1` [Compound K-2290, N1-(4-methoxybenzyl)-N1-[4-(trifluoromethyl)benzyl)-3-{[(1R)-1-(1-naphthyl)ethyl]amino}propanamide], for which, in experiment [1], the EC50 was determined as 100 nM. Besides, in experiment [2], the “Plasma Ca^2+ (mmol/l) 1 hr” value came out at 1.428 mmol/L, the “Plasma Ca^2+ (mmol/l) 2 hr” value was 1.248 mmol/L, the “Plasma Ca^2+ (mmol/l) 4 hr” value stood at 1.063 mmol/L and the “Plasma Ca^2+ (mmol/l) 8 hr” value stood at 1.055 mmol/L.
